The values below come from US20120028284A1, “TRAPPING COMPOUNDS AND METHOD FOR IDENTIFYING REACTIVE METABOLITES” (EISAI R&D MANAGEMENT CO., LTD., priority 2009, published 2012).

The subject of data set [1] is human liver microsomal preparations (cytochrome P450 enzyme preparations). As to the kind of experiment: Trapping of "soft" and "hard" reactive metabolites in microsomal incubations with compound of formula (I), neutral loss LC-MS/MS. Particulars: 50 μM test compound, 2 mg/ml microsomal proteins, 3 mM NADPH, 37° C.; for adducts of reactive metabolites with ECHK detected: trapping agent ECHK 1 mM; for adducts of reactive metabolites with ECHK detected / adducts of reactive metabolites with EHCK detected: neutral loss scanning of 129 Da; for adducts of reactive metabolites with ECO detected: trapping agent ECO 1 mM, neutral loss scanning of 129 Da or 147 Da; for adducts of reactive metabolites with EHCK detected: trapping agent EHCK 1 mM. It counts as in vitro ADME. The procedure:
All microsomal incubations described herein were performed at 37° C. in a water bath or on a heat block. The test compound was mixed with human liver microsomal preparations (cytochrome P450 enzyme preparations) in 100 mM potassium phosphate buffer (pH7.4) including 0.1 mM EDTA and the compound of formula (I). The resulting mixtures were pre-warmed at 37° C. for 5 min. To the reaction mixtures was then added the co-factor-NADPH (to initiate the reaction) to yield a final volume of 500 μl.
The resulting reaction mixtures contained 50 μM test compounds, 2 mg/ml microsomal proteins, 1 mM mixture of compound of formula (I) and 3 mM NADPH.
After 15 or 60 min incubation, the reactions were terminated by the addition of 1000 μl of 50% methanol/50% acetonitrile. The resulting mixtures were centrifuged at 10,000 g for 10 min at 4° C. to pellet the precipitated protein, and the supernatants were dried up. The resulting residue was solubilized with 50% methanol.
(§1) MS analyses were performed on an LTQ Orbitrap FTMS (Thermo Fisher Scientific, Inc., Bremen, Germany). The ESI ion source was operated in the positive ion mode. The entire eluent was sprayed into the mass spectrometer at +5 kV and desolvation of the solvent droplets was further aided by a heated capillary temperature of 350° C. Mass spectra collected in the neutral loss scanning mode were obtained by scanning over the range m/z 200-1100 at 30000 resolution.
For complete profiling of reactive metabolites, samples were first subjected to chromatographic separations with a Prominence LC system with an auto-sampler (Shimadzu Corp., Kyoto, Japan) and eluents were introduced to the LTQ Orbitrap FTMS operated in the neutral loss scanning mode. An L-column ODS (Octadecylsilyl-silica gels; 2.1×150 mm, Chemicals Evaluation and Research Institute, Tokyo, Japan) was used for the chromatographic separation. The chromatographic system used a binary solvent system delivered as a gradient of solvent A (5 mM ammonium acetate) and solvent B (95% acetonitrile included 5 mM ammonium acetate). […] The solvent composition was then held at 100% B for 8 min before re-equilibration at initial conditions. LC-MS/MS analyses were carried out on 20 μl aliquots of cleaned samples. Data acquisition was carried out using the Xcaliber version 2.0 software (Thermo Fisher Scientific, Inc., Bremen, Germany).

Data set [2] in a line: Trapping of acylglucuronides by incubation with compound of formula (I) in buffer, neutral loss LC-MS/MS. Particulars: 100 μM diclofenac acylglucuronide, pH7.4 buffer, 60 min, 37° C. The procedure:
The resulting mixtures were pre-warmed at 37° C. for 5 min.
as §1
For complete profiling of reactive metabolites, samples were first subjected to chromatographic separations with a Prominence LC system with an auto-sampler (Shimadzu Corp., Kyoto, Japan) and eluents were introduced to the LTQ Orbitrap FTMS operated in the neutral loss scanning mode. […] The solvent composition was then held at 100% B for 8 min before re-equilibration at initial conditions. […] Data acquisition was carried out using the Xcaliber version 2.0 software (Thermo Fisher Scientific, Inc., Bremen, Germany).

In the case of `c1coc(-c2cccs2)c1` [2-[2-thienyl]-furan, 2-[2-Thienyl]-furan], in data set [1], the “adducts of reactive metabolites with ECHK detected” value is “three adducts”, the “adducts of reactive metabolites with ECO detected” value is listed as “three adducts” and the “adducts of reactive metabolites with EHCK detected” value is reported as “three adducts”.

Consider `O=C(Cc1ccccc1Nc1c(Cl)cccc1Cl)O[C@@H]1O[C@H](C(=O)O)[C@@H](O)[C@H](O)[C@H]1O` [diclofenac acylglucuronide, Diclofenac acylglucuronide], for which the “adduct of acylglucuronide with ECHK detected” value in data set [2] (trapping agent ECHK 1 mM, neutral loss scanning of 129 Da) is “adduct of diclofenac acylglucuronide with ECHK which was detected”. Besides, the “adduct of acylglucuronide with ECO detected” value in data set [2] (trapping agent ECO 1 mM, neutral loss scanning of 129 Da and 147 Da) is “adduct of diclofenac acylglucuronide with ECO which was detected”. Besides, the “adduct of acylglucuronide with EHCK detected” value in data set [2] (trapping agent EHCK 1 mM, neutral loss scanning of 129 Da) is listed as “adduct of diclofenac acylglucuronide with EHCK which was detected”.

As for `O=C(O)Cc1ccccc1Nc1c(Cl)cccc1Cl` [diclofenac, Diclofenac], in data set [1], the “adducts of reactive metabolites with ECHK detected” value was “two adducts”, the “adducts of reactive metabolites with ECO detected” value is given as “two adducts” and the “adducts of reactive metabolites with EHCK detected” value is on record as “two adducts”.
